Calls of active or inactive are those of the source. No cut-off for these calls is given here.
How the values were obtained:
WM164 [1] = test: Induction of apoptosis in human WM164 cells assessed as viable cells at IC50 concentration after 6 hrs by Annexin V/SYTOX Green based flow cytometric analysis (reference value: 94.77%); type: functional
WM793 [2] = test: Induction of apoptosis in human WM793 cells assessed as viable cells at IC50 concentration after 6 hrs by Annexin V/SYTOX Green based flow cytometric analysis (reference value: 96.2%); type: functional
MUGMel1 [3] = test: Induction of apoptosis in human MUGMel1 cells assessed as early apoptotic cells at IC50 concentration after 24 hrs by Annexin V/SYTOX Green based flow cytometric analysis (reference value: 3.27%); type: functional
MUGMel1 [4] = test: Induction of apoptosis in human MUGMel1 cells assessed as late apoptotic cells at IC50 concentration after 24 hrs by Annexin V/SYTOX Green based flow cytometric analysis (reference value: 1.18%); type: functional
SBcl2 [5] = test: Induction of apoptosis in human SBcl2 cells assessed as viable cells at IC50 concentration after 24 hrs by Annexin V/SYTOX Green based flow cytometric analysis (reference value: 73.08%); type: functional
WM793 [6] = test: Induction of apoptosis in human WM793 cells assessed as necrotic cells at IC50 concentration after 24 hrs by Annexin V/SYTOX Green based flow cytometric analysis (reference value: 0.17%); type: functional
MUGMel1 [7] = test: Induction of apoptosis in human MUGMel1 cells assessed as increase in caspase -3 activity at IC50 concentration after 24 hrs in presence of caspase -inhibitor by Alexa Fluor 647 antibody based flow cytometric analysis; type: functional, cell-based
WM164 [8] = test: Induction of apoptosis in human WM164 cells assessed as up regulation of PMAIP1 at IC50 concentration after 24 hrs by mRNA sequencing method relative to control; type: functional
SBcl2 [9] = test: Antitumour activity against human SBcl2 cells xenografted in NU(NCr)-Foxn1 mouse assessed as increase in necrotic cells at 2 ug/g administered for three consecutive days with 1 day interval for four cycle by hematoxylin and eosin staining based microscopic analysis; type: functional
WM164 [10] = test: Antitumour activity against human WM164 cells xenografted in NU(NCr)-Foxn1 mouse assessed as increase in necrotic cells at 1 to 4 ug/g administered for three consecutive days with 1 day interval for four cycle by hematoxylin and eosin staining based microscopic analysis; type: functional
WM164 [11] = test: Induction of apoptosis in human WM164 cells assessed as up regulation of PUMA at IC50 concentration after 6 to 24 hrs by RT-qPCR analysis; type: functional, cell-based
SBcl2 [12] = test: Induction of apoptosis in human SBcl2 cells assessed as up regulation of NOXA at IC50 concentration after 6 to 24 hrs by RT-qPCR analysis; type: functional, cell-based
SBcl2 [13] = test: Induction of apoptosis in human SBcl2 cells treated with scrambled si-RNA assessed as up regulation of NOXA protein expression at IC50 concentration after 24 hrs by Western blot analysis; type: functional, cell-based
WM793 [14] = test: Induction of apoptosis in human WM793 cells assessed as effect on BAX protein expression at IC50 concentration after 24 hrs by Western blot analysis; type: functional, cell-based
WM164 [15] = test: Induction of apoptosis in human WM164 cells assessed as effect on BAD protein expression at IC50 concentration after 24 hrs by Western blot analysis; type: functional, cell-based
MUGMel2 = test: Induction of apoptosis in human MUGMel2 cells assessed as effect on BAX protein expression at IC50 concentration after 24 hrs by Western blot analysis; type: functional, cell-based
WM164 [16] = test: Antitumour activity against human WM164 cells xenografted in NU(NCr)-Foxn1 mouse assessed as decrease in tumour size at 2 ug/g administered for three consecutive days with 1 day interval for four cycle; type: functional, cell-based

## CC(C)=CC[C@@H](OC(=O)C=C(C)C)C1=CC(=O)c2c(O)ccc(O)c2C1=O [DIMETHYLACRYLSHIKONIN]
WM164 [1]
  Activity: 88.63%
WM793 [2]
  Activity: 88.54%
MUGMel1 [3]
  Activity: 40.28%
MUGMel1 [4]
  Activity: 10.11%
SBcl2 [5]
  Activity: 8.43%
WM793 [6]
  Activity: 0.22%
MUGMel1 [7]
  Activity: inactive
WM164 [8]
  fold change (FC): 1.6
SBcl2 [9]
  Activity: 50%
WM164 [10]
  Activity: 60%
WM164 [11]
  Activity: Active
SBcl2 [12]
  Activity: Active
SBcl2 [13]
  Activity: Active
WM793 [14]
  Activity: inactive
WM164 [15]
  Activity: inactive
MUGMel2
  Activity: inactive
WM164 [16]
  Activity: inactive

From ChEMBL document CHEMBL4602659, “β,β-Dimethylacrylshikonin Induces Apoptosis in Melanoma Cell Lines by NOXA Upregulation” (J Nat Prod, 2020)
